The values below come from patent publication US6235712A, “Non-aqueous polar aprotic peptide formulations” (ALZA Corporation, priority 2000, dated 2001).

Data set [1] in a line: Gelation of peptides in non-aqueous polar aprotic solvents. In kind it is physicochemical. The following applies: formulated in non-aqueous polar aprotic solvents; no gelation even after 12 months at 37° C. How it is done: No gelation was found even after 12 months at 37° C. […] Thus, these solvents have an anti-gellant effect.
For data set [2] the following is noted: aggregation, gelation and fibrillation; cited from earlier work.

In the case of `CCNC(=O)[C@@H]1CCCN1C(=O)[C@H](CCCNC(=N)N)NC(=O)[C@H](CC(C)C)NC(=O)[C@@H](CC(C)C)NC(=O)[C@H](Cc1ccc(O)cc1)NC(=O)[C@H](CO)NC(=O)[C@H](Cc1c[nH]c2ccccc12)NC(=O)[C@H](Cc1c[nH]cn1)NC(=O)[C@@H]1CCC(=O)N1` [leuprolide], the gelation result in data set [1] is listed as “do not gel”.

Take calcitonin: the gelation entry in data set [1] is given as “do not gel”. The “physical stability in aqueous solution” value in data set [2] is “physically unstable”.

Regarding `CC(C)C[C@H](NC(=O)[C@@H](COC(C)(C)C)NC(=O)[C@H](Cc1ccc(O)cc1)NC(=O)[C@H](CO)NC(=O)[C@H](Cc1c[nH]c2ccccc12)NC(=O)[C@H](Cc1cnc[nH]1)NC(=O)[C@@H]1CCC(=O)N1)C(=O)N[C@@H](CCCNC(=N)N)C(=O)N1CCC[C@H]1C(=O)NNC(N)=O` [goserelin], in data set [1], the gelation entry is reported as “do not gel”.
